Experimental data: patent publication US20260234131A1, “THERAPEUTIC ALKALOID COMPOUNDS” (Sensorium Therapeutics, Inc., priority 2023, published 2026)

What was measured:
[1] = biological target: T1, SERT (Homo sapiens, UniProt P31645); assay: SERT inhibition assay (Neurotransmitter Transportation Fluorescence assay, stable 5HTT cells); type: cell-based; settings: for IC50 ratio to (−) mesembrine: SERT assay IC50 relative to (−) mesembrine; for IC50: stable 5HTT cells, 30 minutes at 37° C., fluorescence uptake kit, read-out: SERT Assay Potency Range
T1 construct: expressed in transfected cells
T1 sequence (P31645 whole entry, species assumed): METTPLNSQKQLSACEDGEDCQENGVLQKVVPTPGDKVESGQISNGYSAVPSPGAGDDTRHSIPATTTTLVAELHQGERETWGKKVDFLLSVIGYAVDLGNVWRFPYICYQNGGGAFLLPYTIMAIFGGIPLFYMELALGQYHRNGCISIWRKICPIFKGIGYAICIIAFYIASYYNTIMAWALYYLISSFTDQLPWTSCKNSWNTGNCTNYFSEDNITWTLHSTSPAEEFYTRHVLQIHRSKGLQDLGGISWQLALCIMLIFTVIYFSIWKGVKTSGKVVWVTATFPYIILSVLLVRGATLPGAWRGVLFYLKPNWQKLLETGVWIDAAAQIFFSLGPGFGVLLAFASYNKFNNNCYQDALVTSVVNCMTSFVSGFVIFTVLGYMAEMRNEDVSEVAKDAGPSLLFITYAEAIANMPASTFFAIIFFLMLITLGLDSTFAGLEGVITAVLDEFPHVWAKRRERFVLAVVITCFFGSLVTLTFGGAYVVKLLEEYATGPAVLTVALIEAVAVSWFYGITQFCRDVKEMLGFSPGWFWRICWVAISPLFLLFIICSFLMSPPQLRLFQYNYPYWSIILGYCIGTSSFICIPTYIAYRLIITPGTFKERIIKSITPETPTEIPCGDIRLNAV
Method: SERT inhibition can be measured using a Neruotransmitter Transportation Fluorescence assay. Briefly, stable 5HTT cells were prepared in a 384 microwell plate. Compounds were prepared by in assay buffer (20 mM HEPES, 0.1% BSA). The compounds were added to the plated cells and incubated for 30 minutes at 37° C. 25 μL of dye solution (Molecular Devices Neurotransmitter Transporter Uptake Assay Kit) is added per well and incubated for 30 minutes at 37° C. The plates are then read on a plate reader.

[2] = pharmacokinetics described for (−) mesembrine; species not given; cited from earlier work

Row | Compound | IC50 ratio to (−) mesembrine [1] | IC50 [1] [nM] | half-life in plasma [2]
1 | CN1CC[C@]2(c3ccc4c(c3)OC(F)(F)O4)CCC(=O)C[C@H]12 (single isomer, unassigned) [Compound 232] | <5 | < 50 | –
2 | CN1CC[C@@]2(c3ccc4c(c3)OC(F)(F)O4)CCC(=O)C[C@@H]12 (single isomer, unassigned) [Compound 233] | ≥100 | 500 to 1500 | –
3 | COc1ccc([C@@]23CCC(=O)C[C@@H]2N(C)CC3)cc1OC [Mesembrine] | – | – | less than 2 hours
